Reference: US12622906B2, “Treatment and prognosis of pancreatic cancer” (Cambridge Enterprise Limited, priority 2019, dated 2026)

What was measured:
PDAC cells = experiment: 3D in vitro assay of invasion, PDAC cells co-cultured with BMDM (IncuCyte Zoom, NeuroTrack); type: cell-based, murine; conditions: 3D co-culture of PDAC cells with BMDM; pre-treatment 24 hours or treatment at time of co-culture
Procedure: Cell-matrix cultures were performed by seeding PDAC cells onto wells pre-coated with 1 mg/mL Matrix Growth Factor Reduced Matrigel (Becton Dickinson). To observe cell invasion through Matrigel, plates were placed into IncuCyte Zoom (Essen Bioscience) with the software set to capture images every 3 hours in green and fluorescent protein (GFP/RFP)/Bright Field (or Phase Contrast).
For co-cultures, mCherry-labelled PDAC cells were mixed 1:1 with ZsGreen-labelled macrophages, typically primary BMDM unless otherwise noted. Co-cultures were seeded and kept as subconfluent cultures for 48-96 hours in either 2D or 3D conditions.
To quantify the invasive capacity of PDAC cells, 3D in vitro invasion assays were quantified using software provided by Essen Bioscience, NeuroTrack. […] Unlike high-content imaging systems, which require fixation, staining, and endpoint analysis of cells, the algorithm measured live-cell dynamics. […] Once parameters were defined, they were applied to all 3D in vitro invasion assays for quantification.
The NeuroTrack software measures fluorescent-labelled cells. […] In this method, only PDAC cells that have invaded out of 3D structures are counted if they have a fluorescent mCherry label present in their nucleus. Data is plotted with number of nuclei counted on the y-axis and time on the x-axis. […]

CCR1 expression = CCR1 expression in PDAC cells after prolonged co-culture with BMDM (qRT-PCR, flow cytometry); type: cell-based, murine; conditions: PDAC cells co-cultured with BMDM; by qRT-PCR and flow cytometry
Procedure: Culture conditions for PDAC and BMDM cell lines used in this study are described above. For co-cultures, mCherry-labelled PDAC cells were mixed 1:1 with ZsGreen-labelled macrophages, typically primary BMDM unless otherwise noted. Co-cultures were seeded and kept as subconfluent cultures for 48-96 hours in either 2D or 3D conditions.
Total RNA was isolated and purified from cells using Qiazol reagent and miRNeasy mini kit (Qiagen). cDNA was synthesized using the High Capacity RNA-to-cDNA kit (ABI) according to manufacturer's instructions. qRT-PCR was performed using Power SYBR Green PCR Master Mix (ABI) on the TaqMan 7900 (ABI). Relative expression levels were defined using the ΔΔCt method and normalizing to 18S rRNA and/or GAPDH.
Pre-treatment: PDAC cells and BMDM were pre-treated with CCR1 antagonists 24 hours prior to the start of the experiment, harvested and then seeded according to the co-culture method previously described for the duration of the experiment.
Treatment at time of co-culture: PDAC cells and BMDM were seeded according to the co-culture method as previously described and CCR1 antagonists were treated at the time of seeding and allowed to incubate for the duration of the experiment. […]

[1] = test system: fibroblasts and macrophages; experiment: Viability of non-cancerous cells treated with CCR1 antagonist; type: cell-based; conditions: compared with vehicle control

Row | Compound | macrophage-mediated pro-invasive phenotype of PDAC cells (PDAC cells) | induction of CCR1 expression due to prolonged co-culture (CCR1 expression) | viability of fibroblasts and macrophages [1]
1 | CC[N@+]1(C/C2=C/CCCCCC2)CC[C@@H](NC(=O)C2c3cc(Cl)ccc3Oc3ccc(Cl)cc32)CC1.[I-] [J113863, 1,4-cis-1-(1-cycloocten-1-ylmethyl)-4-[[(2,7-dichloro-9H-xanthen-9-yl)carbonyl]amino]-1-ethylpiperidinium iodide] | striking ability to rein in the effect of macrophages to confer functional pro-invasive abilities to PDAC cells | blunting the induction of CCR1 expression | 
2 | C[C@@H]1CN(Cc2ccc(F)cc2)CCN1C(=O)COc1ccc(Cl)cc1NC(N)=O [BX-471, (2R)-1-[[2-[(Aminocarbonyl)amino]-4-chlorophenoxy]acetyl]-4-[(4-fluorophenyl)methyl]-2-methylpiperazine] | striking ability to rein in the effect of macrophages to confer functional pro-invasive abilities to PDAC cells |  | just as viable as cell treated with vehicle control
